Test results: patent US9738634B2, “Heterocyclic amide compound and herbicide” (SYNGENTA PARTICIPATIONS AG, priority 2013, dated 2017)

Assays:
Assay type in all cases: in vivo
Conditions in all cases: treatment dosage 320 g/ha
barnyard grass [1] = assay: Test Example 1: weedkilling efficacy, preemergent weed treatment in the submerged state; A: barnyard grass
In short: (§1)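 Pots of alluvial soil flooded 4 cm deep, sown with barnyard grass, bulrush and oval-leafed pondweed and transplanted with 2.5-leaf rice. Emulsified compound applied to the water surface on sowing day at stated g/ha; greenhouse 25–30 °C, effects assessed 3 weeks after treatment.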

bulrush [2] = assay: Test Example 1: weedkilling efficacy, preemergent weed treatment in the submerged state; B: bulrush
In short: as §1

oval-leafed pondweed [3] = assay: Test Example 1: weedkilling efficacy, preemergent weed treatment in the submerged state; C: oval-leafed pondweed
In short: as §1

transplanted rice = assay: Test Example 1: preemergent weed treatment in the submerged state, effect on crop; a: transplanted rice
In short: as §1

barnyard grass [4] = assay: Test Example 2: weedkilling efficacy, growth period weed treatment in the submerged state; A: barnyard grass
In short: (§2)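 Barnyard grass, bulrush and oval-leafed pondweed sown in alluvial soil under 4 cm flooding, greenhouse 25 to 30° C. At 1-2 leaf stage, water-diluted emulsion applied to the water surface at stated g/ha dosages; effects scored 3 weeks later.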

bulrush [5] = assay: Test Example 2: weedkilling efficacy, growth period weed treatment in the submerged state; B: bulrush
In short: as §2

oval-leafed pondweed [6] = assay: Test Example 2: weedkilling efficacy, growth period weed treatment in the submerged state; C: oval-leafed pondweed
In short: as §2

crabgrass [7] = assay: Test Example 3: weedkilling efficacy through soil treatment; D: crabgrass
In short: (§3)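 Crop and weed responses were judged three weeks after a uniform surface spray of the water-diluted emulsion at the given g/ha rate. Seeds sat beneath about 1.5 cm of sterilized diluvial soil, and boxes stood in a greenhouse at 25 to 30° C.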

green foxtail [8] = assay: Test Example 3: weedkilling efficacy through soil treatment; E: green foxtail
In short: as §3

barnyard grass [9] = assay: Test Example 3: weedkilling efficacy through soil treatment; F: barnyard grass
In short: as §3

wild oat [10] = assay: Test Example 3: weedkilling efficacy through soil treatment; G: wild oat
In short: as §3

black-grass [11] = assay: Test Example 3: weedkilling efficacy through soil treatment; H: black-grass
In short: as §3

Italian ryegrass [12] = assay: Test Example 3: weedkilling efficacy through soil treatment; I: Italian ryegrass
In short: as §3

common wind-grass [13] = assay: Test Example 3: weedkilling efficacy through soil treatment; J: common wind-grass
In short: as §3

Indian mallow [14] = assay: Test Example 3: weedkilling efficacy through soil treatment; K: Indian mallow
In short: as §3

redroot pigweed [15] = assay: Test Example 3: weedkilling efficacy through soil treatment; L: redroot pigweed
In short: as §3

fig-leafed goosefoot [16] = assay: Test Example 3: weedkilling efficacy through soil treatment; M: fig-leafed goosefoot
In short: as §3

chickweed [17] = assay: Test Example 3: weedkilling efficacy through soil treatment; N: chickweed
In short: as §3

directly sown rice [18] = assay: Test Example 3: soil treatment, effect on crop; b: directly sown rice
In short: as §3

corn [19] = assay: Test Example 3: soil treatment, effect on crop; c: corn
In short: as §3

soybean [20] = assay: Test Example 3: soil treatment, effect on crop; d: soybean
In short: as §3

wheat [21] = assay: Test Example 3: soil treatment, effect on crop; e: wheat
In short: as §3

rapeseed [22] = assay: Test Example 3: soil treatment, effect on crop; g: rapeseed
In short: as §3

crabgrass [23] = assay: Test Example 4: weedkilling efficacy by foliar treatment; D: crabgrass
In short: (§4)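 Seeds are spot-sown into sterilized diluvial soil and covered with about 1.5 cm of soil. After 14 days' greenhouse growth at 25 to 30° C, plants are sprayed on stems and leaves with diluted emulsion at the stated g/ha rate, then scored at 3 weeks.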

green foxtail [24] = assay: Test Example 4: weedkilling efficacy by foliar treatment; E: green foxtail
In short: as §4

barnyard grass [25] = assay: Test Example 4: weedkilling efficacy by foliar treatment; F: barnyard grass
Procedure: (§5) Testing of Weedkilling Efficacy by Foliar Treatment
(§6) Sterilized diluvial soil was introduced into 21 cm long, 13 cm wide, 7 cm deep plastic boxes, and seeds of crabgrass, green foxtail, barnyard grass, wild oat, black-grass, Italian ryegrass, common wind-grass, Indian mallow, redroot pigweed, fig-leafed goosefoot, chickweed, catchweed, birds-eye speedwell, corn, soybean, rice, wheat, beet and rapeseed were each spot-sown, and covered with about 1.5 cm of soil, then the plants were grown in a greenhouse at 25 to 30° C.
(§7) After they had grown for 14 days, emulsions of compounds of the present invention prepared according to compounding example 2 were diluted with water to give the specified dosages, and applied uniformly onto the stem and leaf parts with a small sprayer. 3 weeks after the pesticide treatment the effect on each type of plant was investigated on the basis of the assessment criteria of test example 1.
(§8) A: barnyard grass, B: bulrush, C: oval-leafed pondweed, D: crabgrass, E: green foxtail, F: barnyard grass, G: wild oat, H: black-grass, I: Italian ryegrass, J: common wind-grass, K: Indian mallow, L: redroot pigweed, M: fig-leafed goosefoot, N: chickweed, O: catchweed, p: birds-eye speedwell, a: transplanted rice, b: directly sown rice, c: corn, d: soybean, e: wheat, f: beet, g: rapeseed
(§9) Further, pesticide dosage (g/ha) indicates the concentration regulated such that treatment was with only the stated number of grams (g), when calculated per hectare (ha).

wild oat [26] = assay: Test Example 4: weedkilling efficacy by foliar treatment; G: wild oat
In short: as §4

black-grass [27] = assay: Test Example 4: weedkilling efficacy by foliar treatment; H: black-grass
In short: as §4

Italian ryegrass [28] = assay: Test Example 4: weedkilling efficacy by foliar treatment; I: Italian ryegrass
In short: as §4

common wind-grass [29] = assay: Test Example 4: weedkilling efficacy by foliar treatment; J: common wind-grass
Procedure: as §5, §6, §7, §8, §9

Indian mallow [30] = assay: Test Example 4: weedkilling efficacy by foliar treatment; K: Indian mallow
In short: as §4

redroot pigweed [31] = assay: Test Example 4: weedkilling efficacy by foliar treatment; L: redroot pigweed
In short: as §4

fig-leafed goosefoot [32] = assay: Test Example 4: weedkilling efficacy by foliar treatment; M: fig-leafed goosefoot
In short: as §4

chickweed [33] = assay: Test Example 4: weedkilling efficacy by foliar treatment; N: chickweed
In short: as §4

catchweed = assay: Test Example 4: weedkilling efficacy by foliar treatment; O: catchweed
In short: as §4

directly sown rice [34] = assay: Test Example 4: foliar treatment, effect on crop; b: directly sown rice
In short: as §4

corn [35] = assay: Test Example 4: foliar treatment, effect on crop; c: corn
In short: as §4

soybean [36] = assay: Test Example 4: foliar treatment, effect on crop; d: soybean
In short: as §4

wheat [37] = assay: Test Example 4: foliar treatment, effect on crop; e: wheat
In short: as §4

beet = assay: Test Example 4: foliar treatment, effect on crop; f: beet
In short: as §4

rapeseed [38] = assay: Test Example 4: foliar treatment, effect on crop; g: rapeseed
Procedure: as §5, §6, §7, §8, §9

CC1=C(c2cccnc2F)C(=O)N(C(C)(C)C(=O)Nc2cc(C(F)(F)F)cc(Cl)n2)CO1 [B-2-16]
A (barnyard grass) weedkilling efficacy grade (barnyard grass [1]): 5 (weed kill ratio 90% or more, (practically complete withering)) | B (bulrush) weedkilling efficacy grade (bulrush [2]): 5 (weed kill ratio 90% or more, (practically complete withering)) | C (oval-leafed pondweed) weedkilling efficacy grade (oval-leafed pondweed [3]): 5 (weed kill ratio 90% or more, (practically complete withering)) | a (transplanted rice) effect on crop grade (transplanted rice): 4 (weed kill ratio 70% or more, less than 90%) | A (barnyard grass) weedkilling efficacy grade (barnyard grass [4]): 5 (weed kill ratio 90% or more, (practically complete withering)) | B (bulrush) weedkilling efficacy grade (bulrush [5]): 5 (weed kill ratio 90% or more, (practically complete withering)) | C (oval-leafed pondweed) weedkilling efficacy grade (oval-leafed pondweed [6]): 5 (weed kill ratio 90% or more, (practically complete withering)) | D (crabgrass) weedkilling efficacy grade (crabgrass [7]): 5 (weed kill ratio 90% or more, (practically complete withering)) | E (green foxtail) weedkilling efficacy grade (green foxtail [8]): 5 (weed kill ratio 90% or more, (practically complete withering)) | F (barnyard grass) weedkilling efficacy grade (barnyard grass [9]): 5 (weed kill ratio 90% or more, (practically complete withering)) | G (wild oat) weedkilling efficacy grade (wild oat [10]): 5 (weed kill ratio 90% or more, (practically complete withering)) | H (black-grass) weedkilling efficacy grade (black-grass [11]): 5 (weed kill ratio 90% or more, (practically complete withering)) | I (Italian ryegrass) weedkilling efficacy grade (Italian ryegrass [12]): 5 (weed kill ratio 90% or more, (practically complete withering)) | J (common wind-grass) weedkilling efficacy grade (common wind-grass [13]): 5 (weed kill ratio 90% or more, (practically complete withering)) | K (Indian mallow) weedkilling efficacy grade (Indian mallow [14]): 2 (weed kill ratio 20% or more, less than 40%) | L (redroot pigweed) weedkilling efficacy grade (redroot pigweed [15]): 0 (weed kill ratio 5% or less (practically no effect)) | M (fig-leafed goosefoot) weedkilling efficacy grade (fig-leafed goosefoot [16]): 4 (weed kill ratio 70% or more, less than 90%) | N (chickweed) weedkilling efficacy grade (chickweed [17]): 4 (weed kill ratio 70% or more, less than 90%) | b (directly sown rice) effect on crop grade (directly sown rice [18]): 5 (weed kill ratio 90% or more, (practically complete withering)) | c (corn) effect on crop grade (corn [19]): 1 (weed kill ratio 5% or more, less than 20%) | d (soybean) effect on crop grade (soybean [20]): 1 (weed kill ratio 5% or more, less than 20%) | e (wheat) effect on crop grade (wheat [21]): 1 (weed kill ratio 5% or more, less than 20%) | g (rapeseed) effect on crop grade (rapeseed [22]): 3 (weed kill ratio 40% or more, less than 70%) | D (crabgrass) weedkilling efficacy grade (crabgrass [23]): 5 (weed kill ratio 90% or more, (practically complete withering)) | E (green foxtail) weedkilling efficacy grade (green foxtail [24]): 5 (weed kill ratio 90% or more, (practically complete withering)) | F (barnyard grass) weedkilling efficacy grade (barnyard grass [25]): 5 (weed kill ratio 90% or more, (practically complete withering)) | G (wild oat) weedkilling efficacy grade (wild oat [26]): 5 (weed kill ratio 90% or more, (practically complete withering)) | H (black-grass) weedkilling efficacy grade (black-grass [27]): 5 (weed kill ratio 90% or more, (practically complete withering)) | I (Italian ryegrass) weedkilling efficacy grade (Italian ryegrass [28]): 5 (weed kill ratio 90% or more, (practically complete withering)) | J (common wind-grass) weedkilling efficacy grade (common wind-grass [29]): 5 (weed kill ratio 90% or more, (practically complete withering)) | K (Indian mallow) weedkilling efficacy grade (Indian mallow [30]): 5 (weed kill ratio 90% or more, (practically complete withering)) | L (redroot pigweed) weedkilling efficacy grade (redroot pigweed [31]): 4 (weed kill ratio 70% or more, less than 90%) | M (fig-leafed goosefoot) weedkilling efficacy grade (fig-leafed goosefoot [32]): 5 (weed kill ratio 90% or more, (practically complete withering)) | N (chickweed) weedkilling efficacy grade (chickweed [33]): 4 (weed kill ratio 70% or more, less than 90%) | O (catchweed) weedkilling efficacy grade (catchweed): 4 (weed kill ratio 70% or more, less than 90%) | b (directly sown rice) effect on crop grade (directly sown rice [34]): 5 (weed kill ratio 90% or more, (practically complete withering)) | c (corn) effect on crop grade (corn [35]): 4 (weed kill ratio 70% or more, less than 90%) | d (soybean) effect on crop grade (soybean [36]): 4 (weed kill ratio 70% or more, less than 90%) | e (wheat) effect on crop grade (wheat [37]): 3 (weed kill ratio 40% or more, less than 70%) | f (beet) effect on crop grade (beet): 4 (weed kill ratio 70% or more, less than 90%) | g (rapeseed) effect on crop grade (rapeseed [38]): 4 (weed kill ratio 70% or more, less than 90%)
